Results reported in PubChem BioAssay (NCI).
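In this assay, cells in 96-well plates receive the compound at five concentrations for 48 hours. Endpoints are linearly interpolated between the surrounding concentrations. Here, GI50 denotes the concentration required for 50% inhibition of growth. TGI: total growth inhibition.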

Tests used:
Test in all cases: NCI-60 cell line screen, 48 h
[1] = system: RXF 393 renal
[2] = system: KM12 colon
[3] = system: SK-MEL-2 melanoma
[4] = system: UO-31 renal
[5] = system: OVCAR-5 ovarian
[6] = system: SNB-75 CNS
[7] = system: NCI-H226 lung
[8] = system: OVCAR-3 ovarian
[9] = system: U251 CNS
[10] = system: HCC-2998 colon

Molecule `OCNCCNc1nc2ccccc2c2[nH]c3ccccc3c12` has a GI50 [1] of 1.11 µM, a TGI [1] of 5.85 µM and a GI50 [2] of 1.54 µM. For the same molecule, the TGI [2] was 7.37 µM, the GI50 [3] was 2.25 µM and the TGI [3] was 24 µM. The GI50 [4] was 2.98 µM, the TGI [4] was > 50 µM and the GI50 [5] was 0.582 µM. For the same molecule, the TGI [5] was 6.75 µM, the GI50 [6] was 2.28 µM and the TGI [6] was 11.6 µM. It also gave a GI50 [7] of 1.47 µM, a TGI [7] of 5.88 µM and a GI50 [8] of 1.31 µM. The TGI [8] was 3.67 µM, the GI50 [9] was 0.506 µM and the TGI [9] was 1.9 µM.

`CCOC(=O)C1COc2cc(-c3cc(=O)c4ccccc4o3)ccc2O1` (centres undefined) was tested, and the TGI [1] was > 100 µM, the TGI [2] was > 100 µM and the TGI [3] was > 100 µM. The TGI [10] was > 100 µM, the TGI [4] was 76.8 µM and the TGI [5] was > 100 µM. For the same molecule, the TGI [6] was > 100 µM, the TGI [8] was > 100 µM and the TGI [9] was > 100 µM.

Molecule `CCSC(SCC)=C1C(=O)N(c2ccccc2)N=C1C` has a TGI [1] of 5.89 µM, a TGI [2] of 35.3 µM and a TGI [3] of 33 µM. It also gave a TGI [10] of 27.6 µM, a TGI [4] of 29 µM and a TGI [5] of 29.9 µM. It also gave a TGI [6] of 43.9 µM, a TGI [7] of 29.9 µM and a TGI [8] of 20.2 µM.

`COc1cc2c(c(OC)c1OC)-c1ccc(SC)c(=O)cc1[C@@H](NC(=O)c1ccc(Cl)cc1)CC2` was tested, and the TGI [1] was 19.4 µM, the TGI [3] was 5.47 µM and the TGI [10] was < 0.01 µM. The TGI [4] was 62.6 µM, the TGI [6] was > 100 µM and the TGI [7] was < 0.01 µM. For the same molecule, the TGI [8] was 2.64 µM and the TGI [9] was < 0.01 µM.

`Cc1cc([N+](=O)[O-])c(C)c(Br)c1C` was tested, and the TGI [1] was > 100 µM, the TGI [2] was > 100 µM and the TGI [3] was > 100 µM. The TGI [4] was > 100 µM, the TGI [5] was > 100 µM and the TGI [6] was > 100 µM. For the same molecule, the TGI [7] was > 100 µM, the TGI [8] was > 100 µM and the TGI [9] was > 100 µM.

`CSC1=NCC2(S1)c1ccccc1N(C(=O)OC(C)(C)C)C2N1CCCCC1` (centres undefined) was tested, and the GI50 [1] was 78 µM, the TGI [1] was > 100 µM and the GI50 [2] was > 100 µM. The TGI [2] was > 100 µM, the GI50 [3] was > 100 µM and the TGI [3] was > 100 µM. For the same molecule, the GI50 [10] was 31 µM, the TGI [10] was > 100 µM and the GI50 [4] was 78.7 µM. For the same molecule, the TGI [4] was > 100 µM, the GI50 [5] was > 100 µM and the TGI [5] was > 100 µM. The GI50 [6] was 31.7 µM, the TGI [6] was 88.4 µM and the GI50 [7] was > 100 µM. For the same molecule, the TGI [7] was > 100 µM.

For `O=C(Nc1cccc(NC(=O)c2cc(=O)c3ccccc3o2)n1)c1cc(=O)c2ccccc2o1`, the TGI [1] was > 100 µM, the TGI [2] was > 100 µM and the TGI [3] was > 100 µM. The TGI [10] was > 100 µM, the TGI [4] was 85.6 µM and the TGI [5] was > 100 µM. For the same molecule, the TGI [6] was > 100 µM, the TGI [8] was > 100 µM and the TGI [9] was > 100 µM.

Work on `CCOc1ccc(C(CN2CCOCC2)C(C)=O)cc1OC` (centres undefined) yielded a TGI [1] of 41.1 µM, a TGI [2] of 29 µM and a TGI [3] of 28.4 µM. The TGI [10] was 32.3 µM, the TGI [4] was 27.8 µM and the TGI [5] was 33.2 µM. The TGI [6] was 32.6 µM, the TGI [7] was 32.4 µM and the TGI [9] was 31.9 µM.

For `COC(=O)CC(C(C(C)=O)C(=O)OCc1ccccc1)N1C(=O)OCC1c1ccccc1` (centres undefined), the TGI [1] was > 100 µM, the TGI [3] was > 100 µM and the TGI [10] was > 100 µM. The TGI [4] was > 100 µM, the TGI [6] was 71.9 µM and the TGI [7] was > 100 µM. The TGI [8] was > 100 µM and the TGI [9] was > 100 µM.

With `CC(NC(=O)c1ccccc1)(C(=O)O)C(=O)O` the TGI [1] was > 100 µM, the TGI [2] was > 100 µM and the TGI [3] was > 100 µM. For the same molecule, the TGI [4] was > 100 µM, the TGI [5] was > 100 µM and the TGI [6] was > 100 µM. For the same molecule, the TGI [7] was > 100 µM, the TGI [8] was > 100 µM and the TGI [9] was > 100 µM.
